Measurements as given in BindingDB's records for doi:10.1021/ml300214g (2012).

Assay: Inhibition of CSF1R in mouse M-NFS-60 cells assessed as inhibition of cell proliferation after 72 hrs by Celltiter-Blue assay

IC50 | SMILES
78 nM | CC(C)N1CCC(Oc2ccc(C(=O)Nc3ccc(NC(=O)Nc4cc(C(C)(C)C)on4)cc3)nc2)CC1
223 nM | Cc1ccc(C(=O)Nc2ccc(NC(=O)Nc3cc(C(C)(C)C)on3)cc2)nc1
63.9 nM | Cc1ccnc(C(=O)Nc2ccc(NC(=O)Nc3cc(C(C)(C)C)on3)cc2)c1

Second part, the compound before the results:

SMILES | IC50
CN1C(C)(C)CC(Oc2ccc(C(=O)Nc3ccc(NC(=O)Nc4cc(C(C)(C)C)on4)cc3)nc2)CC1(C)C | 50.4 nM
CCN1C(C)(C)CC(Oc2ccc(C(=O)Nc3ccc(NC(=O)Nc4cc(C(C)(C)C)on4)cc3)nc2)CC1(C)C | 46.3 nM
CC(C)(C)c1cc(NC(=O)Nc2ccc(NC(=O)c3ccc(OC4CCN(C5CC5)CC4)cn3)cc2)no1 | 150 nM
CC(C)(C)c1cc(NC(=O)Nc2ccc(NC(=O)c3ccc(OC4CCN(C(C)(C)C)CC4)cn3)cc2)no1 | 64.4 nM
CC1(C)CC(Oc2ccc(C(=O)Nc3ccc(NC(=O)Nc4cc(C(C)(C)C)on4)cc3)nc2)CC(C)(C)N1 | 74.7 nM
